Cc1cnc(NC(=O)C2=C(O)c3ccccc3S(=O)(=O)N2C)s1
solubility (mole fraction)
Conditions | 288.15 K | 293.15 K | 298.15 K | 303.15 K | 308.15 K
in ethanol | 2.2e-05 | 2.55e-05 | 3.2e-05 | 3.95e-05 | 5.3e-05
in ethylene glycol | 2.53e-05 | 2.59e-05 | 3.02e-05 | 2.91e-05 | 3.06e-05
in propylene glycol | 4.49e-05 | 4.52e-05 | 4.74e-05 | 5.6e-05 | 6.61e-05
in water | 2e-07 | 3e-07 | 4e-07 | 9e-07 | 1.1e-06
